US10731222B2 (RNA Diagnostics Inc., priority 2013, dated 2020)
“Also recorded” adds a separate entry of the source.

Columns and labels:
[1] = tested on: A2780 ovarian cancer cells; assay: RNA disruption in drug-treated A2780 cells (Agilent Bioanalyzer electropherogram, RDI); format: cell-based, human
Description: RNA was isolated from ovarian cancer cell line A2780 cells which had been treated with 10 μM docetaxel in 50% media or 20 μM epirubicin, each in 50% media. Cells were treated with the chemotherapeutic for 24 hours at 37° C. Isolated RNA was separated by microcapillary electrophoresis using the Agilent 2100 Bioanalyzer.
Cells were plated and treated with docetaxel concentrations ranging from 0.001-40 μM for 24 to 72 hours to assess the effect on cell number, RNA content, and integrity (measured using a Bioanalyzer 2100 from Agilent Technologies, Inc.).
A2780 cells treated for up to 72 hours with docetaxel at 0.005 uM and 0.2 uM, were analyzed for the amount of RNA per cell. RNA was isolated and electophoretically separated using an Agilent Bioanalyzer.
RNA was isolated and electrophoretically separated on an Agilent Bioanalyzer. As shown in FIG. 24D bands appeared just below the 28S (e.g. intermediate) and 18S bands (e.g. low banding region) at 0.005 uM and peaked at 0.2 uM.
A time course experiment was conducted in A2780 cells. Cells were treated for up to 72 hours with docetaxel at 0.005 uM and 0.2 uM. RNA was isolated and run on an Agilent Bioanalyzer.
The effect of a caspase inhibitor on RNA integrity changes was next assessed. Cells were treated with or without docetaxel at a concentration of 0.2 uM in the presence or absence of the caspase inhibitor Q-DEVD-OPH (Biovision Laboratories) at a concentration of 10 uM.

parental A2780 cells = assay: Clonogenic assay, drug-sensitive parental cells; format: cell-based; settings: Homo sapiens, 50% of colony formation suppressed
Text: (§1) RDA like clonogenic assays can be used to identify drugs that are cytotoxic (FIG. 24C iv). […] The cell lines have widely differing sensitivity to docetaxel in a clonogenic assay, with IC50 values differing by over three orders of magnitude.

[2] = tested on: docetaxel-resistant A2780DXL cells; assay: Clonogenic assay, docetaxel-resistant cells; format: cell-based; settings: 50% of colony formation suppressed
Text: (§2) A docetaxel A2780 resistant cell line was made as described in Li et al., Int. J. Mol. Med 2004 14(20): 257-264.
as §1

[3] = tested on: docetaxel-resistant A2780DXL cells; assay: RNA disruption in docetaxel-resistant cells; format: cell-based; settings: docetaxel treatment
Description: as §2
A time course experiment was conducted. Sensitive parental and docetaxel resistant A2780 cells were treated with docetaxel for 24 hours. RNA was isolated and run on an Agilent Bioanalyzer.
The a\Ability of RDA to detect potentiators of docetaxel (Dxl) sensitivity. […] Thus, RDA may be used to screen for potentiators of chemotherapy drug cytotoxicity.

[4] = tested on: CaOV3 ovarian tumour cell line; assay: Docetaxel-induced RNA disruption, CaOV3; format: cell-based
[5] = tested on: Jurkat leukemia cell line; assay: Docetaxel-induced RNA disruption, Jurkat; format: cell-based
[6] = tested on: A2780 ovarian tumour cell line; assay: Apoptosis markers in drug-treated cells (Annexin V-FITC, DNA content, PARP cleavage, caspase activity); format: cell-based, human
Description: Various cell lines were treated with anti-cancer agents and the effects of these treatments on the cellular RNA banding pattern, Annexin V-FITC binding to cells, cellular DNA content, poly ADP ribose polymerase (PARP) cleavage, and cell proliferation in the absence of drug post-treatment were assessed.

A2780 cells = assay: Cell counts and Recovery Assay of A2780 cells after docetaxel

In the case of `CC(=O)O[C@@]12CO[C@@H]1C[C@H](O)[C@@]1(C)C(=O)[C@H](O)C3=C(C)[C@@H](OC(=O)[C@H](O)[C@@H](NC(=O)OC(C)(C)C)c4ccccc4)C[C@@](O)([C@@H](OC(=O)c4ccccc4)[C@H]21)C3(C)C` [docetaxel], the “amount of RNA per cell” value ([1]; 0.005 uM and 0.2 uM, up to 72 hours) is reported as “increase in a time-dependent and dose-dependent manner”, the electropherogram pattern ([1]; 10 μM in 50% media, 24 hours, 37° C.) is reported as “an intermediate peak and a peak adjacent to the 18S peak” and the RDI ([1]; 0.2 micromolar, 72 hrs, 0.23 prior to drug) is reported as 3.09. The RNA concentration ([1]; 0.2 micromolar, 72 hrs, 1220 prior to drug) was “about 359 ng/microliter”, the “concentration at which the novel banding peaked” value ([1]; 24 hours) was 0.2 µM and the “ratio of Low C Area/(28S+18S)” value ([1]; after 72 hr, little change at 8, 24 or 48 hr) was “dramatic increase”. The RIN ([1]; concentrations ≥0.005 uM) was “did not change significantly”, the “concentration giving reductions in cell number and RIN and increased RDI” value ([1]; dose and time-dependent) was ≥ 0.1 µM and the “response of cells in culture to the agent” value ([1]; dose- and time-dependent) was “RNA disruption”. The IC50 (parental A2780 cells) was ~1.1 nM, the IC50 [2] was ~650 nM and the “RNA disruption / banding below 28S and 18S” value [3] was “no banding is evident; also recorded: did not result in RNA disruption; also recorded: do not show docetaxel-induced RNA disruption”. For the same compound, the “docetaxel-induced RNA disruption” value [4] was “RNA disruption was also observed”, the “docetaxel-induced RNA disruption” value [5] was “RNA disruption was also observed” and the “Annexin V-FITC binding” value [6] was “enhance Annexin V-FITC binding to cells”. The DNA laddering [6] was “no DNA laddering was observed”, the PARP cleavage [6] was “induce the cleavage of poly ADP ribose polymerase (PARP)” and the “cellular DNA content” value [6] was “generate cells containing a sub-G1 level of DNA content”. The cellular caspase activity [6] was “activated cellular caspase activity”, the “membrane integrity (propidium iodide staining)” value ([6]; after drug-treatment) was “lack of propiclium iodide staining” and the “recovery in drug-free media” value (A2780 cells; 5 nM) was “permitted cell recovery, but only when the incubation period was 48 hours or less”. For the same compound, the “recovery in drug-free media” value (A2780 cells; 0.2 uM for up to 72 hours, washed and replated) was “No resumption of cell proliferation” and the “concentrations at which cell numbers remained constant” value (A2780 cells; up to 72 hours) was “greater than or equal to 0.005 uM”.
